Test results published in patent publication US9084754B2, “Highly permeating terbinafine formulation” (NUVO RESEARCH INC., priority 2009, dated 2015).
Where a name gives a salt, the structure may show the parent alone.

Assay: Solubility of terbinafine hydrochloride
Format: physicochemical
Conditions: for solubility at 24 h: thermodynamic from solid
Protocol: Buffer Preparation: Buffers were prepared at 50 mM concentration using ammonium acetate (pHs 4.0 and 10.0) or ammonium phosphate (pHs 6.0, 7.0, and 8.0). Solubility Sample Preparation: 100 to 800 mg terbinafine HCL was transferred to separate 4-mL vials. To each vial, 2 mL of the solvent to be investigated was added. Samples were capped and then rotated for 24 hours at room temperature. The samples were allowed to settle overnight at room temperature. Approximately 0.4 mL of the supernatant was removed and transferred to a 0.45 μm Nylon microcentrifuge filter and clarified. Samples were diluted with 50% methanol to within the calibration range. Sample Analysis: Samples were analyzed by HPLC with five-minute runs.

solubility at 24 h (50 mM ammonium acetate buffer pH 4.0, aqueous buffer, solvent pH 4.0 buffer): 4800 µg/mL
solubility at 24 h (50 mM ammonium acetate buffer pH 10.0, aqueous buffer, solvent pH 10.0 buffer): 1500 µg/mL
solubility at 24 h (50 mM ammonium phosphate buffer pH 6.0, aqueous buffer, solvent pH 6.0 buffer): 5000 µg/mL
solubility at 24 h (50 mM ammonium phosphate buffer pH 7.0, aqueous buffer, solvent pH 7.0 buffer): 20 µg/mL
solubility at 24 h (50 mM ammonium phosphate buffer pH 8.0, aqueous buffer, solvent pH 8.0 buffer): 2 µg/mL
solubility at 24 h (aqueous buffer, solvent PBS pH 5.5): 700 µg/mL
Solubility in words (aqueous solvents with pHs of 4 and 6): moderate solubility
solubility at 24 h (aqueous with cosolvent or surfactant or cyclodextrin, solvent 10% Ethanol): 7500 µg/mL
solubility at 24 h (aqueous with cosolvent or surfactant or cyclodextrin, solvent 20% Ethanol): 11000 µg/mL
solubility at 24 h (aqueous with cosolvent or surfactant or cyclodextrin, solvent 40% Ethanol): 53000 µg/mL
solubility at 24 h (aqueous with cosolvent or surfactant or cyclodextrin, solvent 50% Ethanol): 119000 µg/mL
Solubility in words (non-polar solvents such as ethyl acetate and isopropyl myristate): lower solubility
solubility at 24 h (oil or lipid, solvent Isopropyl myristate): 30 µg/mL
solubility at 24 h (organic solvent or mixture, solvent DMSO): 114000 µg/mL
solubility at 24 h (organic solvent or mixture, solvent Ethanol): 172000 µg/mL
solubility at 24 h (organic solvent or mixture, solvent Isopropanol): 26300 µg/mL
Solubility in words (pHs 7, 8, and 10): substantially lower solubility
Solubility in words (polar organic solvents such as ethanol and DMSO): high solubility
Solubility (solvent 5% Ethanol): 6.7 mg/mL
Solubility (solvent Ethyl acetate): 0.7 mg/mL
solubility at 24 h (solvent Water, room temperature): 5900 µg/mL
Compound: CN(C/C=C/C#CC(C)(C)C)Cc1cccc2ccccc12 [Terbinafine, terbinafine hydrochloride]
